Reference: ChEMBL document CHEMBL1201862, “PubChem BioAssay data set” (2004)
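Assay format: 96-well plates, 48-hour exposure. At the GI50, growth is halved.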 Activity calls are given as the source filed them. Rule as the data show it: active = GI50 up to about 1.1 µM and inactive = higher.

Tests used:
Test in all cases: inhibition of tumour cell growth, NCI panel, 48 h
[1] = test system: KM12
[2] = test system: SK-MEL-28
[3] = test system: OVCAR-4
[4] = test system: TK-10
[5] = test system: IGROV-1
[6] = test system: A549
[7] = test system: MOLT-4
[8] = test system: OVCAR-3
[9] = test system: SR
[10] = test system: UO-31
[11] = test system: CCRF-CEM
[12] = test system: COLO 205
[13] = test system: NCI-H522
[14] = test system: 786-0
[15] = test system: U-251
[16] = test system: HCC 2998
[17] = test system: EKVX
[18] = test system: RXF 393

Measured: GI50

COC(=O)C1=C(C(=O)OC)SC(=CC#CC=C2SC(C(=O)OC)=C(C(=O)OC)S2)S1
inactive: [1] > 54.6 µM | [2] 18.4 µM | [3] 9.33 µM | [4] 9.06 µM | [5] 18.2 µM | [6] 25.5 µM | [7] > 100 µM | [8] 5.94 µM | [9] > 100 µM | [10] 3.51 µM | [11] > 100 µM | [12] 11.7 µM | [13] 24.4 µM | [14] 5.79 µM | [15] 16.1 µM | [16] 10.8 µM | [17] 52.2 µM

CC(C)(Oc1ccc(/C=C/C(=O)c2ccc(Cl)cc2)cc1)C(=O)Nc1c(Cl)cccc1Cl
inactive: [18] 20.6 µM | [1] 11.8 µM | [2] 16.1 µM | [3] 23.4 µM | [4] 59.4 µM | [5] 26.9 µM | [6] 31.4 µM | [7] 6.32 µM | [8] 19.5 µM | [9] > 100 µM | [10] 24.4 µM | [12] 17.8 µM | [14] 19.6 µM | [15] 12.5 µM | [16] 25.4 µM | [17] 57.8 µM

CN1C(=O)n2c(nc3ccccc32)C(N=[N+]=[N-])(N=[N+]=[N-])C1=O (stereo unspecified)
inactive: [18] > 100 µM | [1] > 100 µM | [2] > 100 µM | [3] > 100 µM | [4] > 100 µM | [5] > 100 µM | [6] > 100 µM | [7] > 100 µM | [8] > 100 µM | [10] > 100 µM | [11] 68.9 µM | [12] > 100 µM | [13] > 100 µM | [14] > 100 µM | [15] > 100 µM | [16] > 100 µM | [17] > 100 µM

CC1(C)c2ccccc2N2O[C@@H]3C(=O)N(c4ccccc4)C(=O)[C@@H]3C21c1ccccc1 (stereo partly specified)
inactive: [18] 14.6 µM | [1] > 100 µM | [2] > 100 µM | [4] > 100 µM | [5] > 100 µM | [6] > 100 µM | [7] 47.8 µM | [8] > 100 µM | [10] > 100 µM | [11] 52.8 µM | [12] > 100 µM | [13] 41.1 µM | [14] > 100 µM | [16] > 100 µM | [17] > 100 µM

O=S(=O)([C-]([I+]c1ccccc1)S(=O)(=O)C(F)(F)C(F)(F)C(F)(F)C(F)(F)F)C(F)(F)C(F)(F)C(F)(F)C(F)(F)F
inactive: [1] 21.5 µM | [2] 15.8 µM | [3] 2.95 µM | [4] 16.3 µM | [5] 19.1 µM | [6] 18.7 µM | [7] 3.51 µM | [8] 15.9 µM | [9] 4.14 µM | [10] 13.2 µM | [11] 4.06 µM | [12] 6.64 µM | [13] 2.49 µM | [14] 14.9 µM | [15] 14.4 µM | [16] 20 µM | [17] 13.5 µM

COC(=O)c1cc(O)ccc1NC(=O)c1ccc(O)cc1
inactive: [1] > 100 µM | [2] > 100 µM | [3] > 100 µM | [4] 82.2 µM | [5] > 100 µM | [6] > 100 µM | [7] > 100 µM | [8] > 100 µM | [9] > 100 µM | [10] > 100 µM | [11] > 100 µM | [12] > 100 µM | [13] 41.4 µM | [14] > 100 µM | [15] > 100 µM | [16] > 100 µM | [17] > 100 µM

COc1c2nc(CCl)[nH]c(=O)c2c(OC)c2nc(CCl)[nH]c(=O)c12
inactive: [18] > 100 µM | [1] > 100 µM | [2] > 100 µM | [3] > 100 µM | [4] > 100 µM | [5] > 100 µM | [6] > 100 µM | [7] > 100 µM | [8] > 100 µM | [10] > 100 µM | [11] > 100 µM | [12] > 100 µM | [13] > 100 µM | [14] > 100 µM | [15] > 100 µM

COc1ccc2c3c(coc13)C(CCC(=O)O)CC2 (stereo unspecified)
inactive: [18] > 100 µM | [2] > 100 µM | [3] > 100 µM | [4] > 100 µM | [5] > 100 µM | [6] > 100 µM | [8] > 100 µM | [12] > 100 µM | [14] > 100 µM | [15] > 100 µM | [16] > 100 µM | [17] > 100 µM

CCOC1c2nc3ccccc3nc2-c2ccccc2N1C(C)=O (stereo unspecified)
inactive: [18] 28.3 µM | [1] > 100 µM | [2] > 100 µM | [3] 74.6 µM | [5] > 100 µM | [6] > 100 µM | [7] > 100 µM | [8] > 100 µM | [9] > 100 µM | [10] > 100 µM | [11] > 100 µM | [12] > 100 µM | [14] 56.8 µM | [15] > 100 µM | [16] > 100 µM | [17] > 100 µM

CC(C)c1cccc(C(C)C)c1NC(=S)NN=C1C=C(C(C)(C)C)C(=O)C(C(C)(C)C)=C1
inactive: [18] 16.7 µM | [2] 34.4 µM | [3] 17.3 µM | [4] 30.4 µM | [5] 26 µM | [6] 19.9 µM | [7] 28.7 µM | [8] 22.5 µM | [9] 35.3 µM | [10] 29.6 µM | [11] 22.7 µM | [12] 20.1 µM | [14] 18.9 µM | [15] 16.2 µM | [16] 23.5 µM | [17] 33.5 µM

COc1cc2c(cc1OC)-c1cc3cc(OC)c(OC)cc3n1CC2
inactive: [1] 38.5 µM | [2] 34 µM | [3] 22.7 µM | [4] 19.9 µM | [5] 90.8 µM | [6] 50.2 µM | [7] > 100 µM | [8] > 100 µM | [9] > 100 µM | [10] > 100 µM | [11] > 100 µM | [12] 32.4 µM | [13] 32.5 µM | [14] 23.4 µM | [15] 37.7 µM | [16] 61 µM | [17] > 100 µM

Nc1n[n+]([O-])c2ccccc2[n+]1[O-] [TIRAPAZAMINE]
inactive: [18] 57.5 µM | [1] > 100 µM | [2] > 100 µM | [3] > 100 µM | [4] > 100 µM | [5] 75.5 µM | [6] 93.5 µM | [7] 37.4 µM | [8] > 100 µM | [10] > 100 µM | [11] > 100 µM | [12] > 100 µM | [13] 99.8 µM | [14] > 100 µM | [15] > 100 µM | [17] > 100 µM
